Source: US9145399B2, “Substituted bicyclic triazole derivatives as gamma secretase modulators” (Janssen Pharmaceuticals, Inc., priority 2010, dated 2015)

Tests used:
Aβ42 [1] = experiment: Screening for γ-secretase-modulating activity in SKNBE2 cells carrying APP 695 wild type: Aβ42 in cell supernatant (Alphalisa); type: cell-based; conditions: overnight incubation
Summary of the method: (§1)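 SKNBE2 cells expressing wild-type APP695 were incubated overnight at 37° C with test compound at several concentrations. Aβ42 and Aβtotal in supernatant were measured by AlphaLISA sandwich immunoassays. IC50 came from 4-parameter non-linear fits of percent of compound-free control versus log concentration.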

Aβtotal [2] = experiment: In vivo efficacy: Aβtotal in brain of non-transgenic mice after single oral dose (ELISA); parameters: species or system mouse; conditions: dose 30 mg/kg oral dosing, soluble brain fraction, animals sacrificed after 4 h, untreated animals (Ctrl) set at 100; for response vs control in vivo at 30 mg/kg: Mus musculus, read-out: Aβtotal (% vs Ctrl)_Mean
Text: (§2) To determine whether acute administration of an Aβ42 lowering agent would reduce Aβ42 levels in vivo, non-transgenic rodents, e.g. mice or rats were used. Animals treated with the Aβ42 lowering agent were examined and compared to those untreated or treated with vehicle and brain levels of soluble Aβ42 and total Aβ were quantitated by standard techniques, for example, using ELISA. Treatment periods varied from hours (h) to days and were adjusted based on the results of the Aβ42 lowering once a time course of onset of effect could be established.
(§3) A typical protocol for measuring Aβ42 lowering in vivo is shown but it is only one of many variations that could be used to optimize the levels of detectable Aβ. For example, Aβ42 lowering compounds were formulated in 20% of Captisol® (a sulfobutyl ether of β-cyclodextrin) in water or 20% hydroxypropyl β cyclodextrin. The Aβ42 lowering agents were administered as a single oral dose or by any acceptable route of administration to overnight fasted animals. After 4 h, the animals were sacrificed and Aβ42 levels were analysed.
(§4) Blood was collected by decapitation and exsanguinations in EDTA-treated collection tubes. Blood was centrifuged at 1900 g for 10 minutes (min) at 4° C. and the plasma recovered and flash frozen for later analysis. The brain was removed from the cranium and hindbrain. The cerebellum was removed and the left and right hemisphere were separated. The left hemisphere was stored at −18° C. for quantitative analysis of test compound levels. The right hemisphere was rinsed with phosphate-buffered saline (PBS) buffer and immediately frozen on dry ice and stored at −80° C. until homogenization for biochemical assays.
(§5) Mouse brains from non-transgenic animals were resuspended in 8 volumes of 0.4% DEA (diethylamine)/50 mM NaCl containing protease inhibitors (Roche-11873580001 or 04693159001) per gram of tissue, e.g. for 0.158 g brain, add 1.264 ml of 0.4% DEA. All samples were homogenized in the FastPrep-24 system (MP Biomedicals) using lysing matrix D (MPBio #6913-100) at 6 m/s for 20 seconds. Homogenates were centrifuged at 221.300×g for 50 min. The resulting high speed supernatants were then transferred to fresh eppendorf tubes. Nine parts of supernatant were neutralized with 1 part 0.5 M Tris-HCl pH 6.8 and used to quantify Aβtotal and Aβ42.
(§6) To quantify the amount of Aβtotal and Aβ42 in the soluble fraction of the brain homogenates, Enzyme-Linked-Immunosorbent-Assays were used. Briefly, the standards (a dilution of synthetic Aβ1-40 and Aβ1-42, Bachem) were prepared in 1.5 ml Eppendorf tube in Ultraculture, with final concentrations ranging from 10000 to 0.3 pg/ml. The samples and standards were co-incubated with HRPO-labelled N-terminal antibody for Aβ42 detection and with the biotinylated mid-domain antibody 4G8 for Aβtotal detection. 50 μl of conjugate/sample or conjugate/standards mixtures were then added to the antibody-coated plate (the capture antibodies selectively recognize the C-terminal end of Aβ42, antibody JRF/cAβ42/26, for Aβ42 detection and the N-terminus of Aβ, antibody JRF/rAβ/2, for Aβtotal detection). The plate was allowed to incubate overnight at 4° C. in order to allow formation of the antibody-amyloid complex. Following this incubation and subsequent wash steps the ELISA for Aβ42 quantification was finished by addition of Quanta Blu fluorogenic peroxidase substrate according to the manufacturer's instructions (Pierce Corp., Rockford, Il). A reading was performed after 10 to 15 min (excitation 320 nm/emission 420 nm).
For Aβtotal detection, a Streptavidine-Peroxidase-Conjugate was added, followed 60 min later by an additional wash step and addition of Quanta Blu fluorogenic peroxidase substrate according to the manufacturer's instructions (Pierce Corp., Rockford, Ill). A reading was performed after 10 to 15 min (excitation 320 nm/emission 420 nm). […]

Aβ42 [3] = experiment: In vivo efficacy: Aβ42 lowering in brain of non-transgenic mice after single oral dose (ELISA); parameters: species or system mouse; conditions: dose 30 mg/kg oral dosing, soluble brain fraction, animals sacrificed after 4 h, untreated animals (Ctrl) set at 100; for response vs control in vivo at 30 mg/kg: Mus musculus, read-out: Aβ42 (% vs Ctrl) _Mean
Text: as §2, §3, §4, §5, §6
In this model at least 20% Aβ42 lowering compared to untreated animals would be advantageous.
The results are shown in Table 4 (dose 30 mg/kg oral dosing) (value for untreated animals as control (Ctrl) was set at 100): […]

Aβtotal [4] = experiment: Screening for γ-secretase-modulating activity in SKNBE2 cells carrying APP 695 wild type: Aβtotal in cell supernatant (Alphalisa); type: cell-based; conditions: overnight incubation
Summary of the method: as §1

[5] = Homo sapiens, SKNBE2, SKNBE2 cells carrying APP 695 wild type
[6] = SKNBE2 cells carrying APP 695 wild type

Row | SMILES | IC50 (Aβ42 [1]; [5]) | response vs control in vivo at 30 mg/kg (Aβtotal [2]) | melting point | response vs control in vivo at 30 mg/kg (Aβ42 [3]) | IC50 (Aβtotal [4]; Homo sapiens) | IC50 (Aβ42 [1]; [6]) | IC50 (Aβtotal [4]) | Aβtotal (% vs Ctrl)_Mean (Aβtotal [2]) | Aβ42 (% vs Ctrl) _Mean (Aβ42 [3])
1 | COc1cc(Nc2nc3c(-c4ccccc4C(F)(F)F)cccn3n2)ccc1-n1cnc(C)n1 [Compound 3, N-[3-methoxy-4-(3-methyl-1H-1,2,4-triazol-1-yl)phenyl]-8-[2-(trifluoromethyl)phenyl]-[1,2,4]triazolo[1,5-a]pyridin-2-amine] | 19 nM | 95% | 195.5 °C | 75% | > 10000 nM | – | – | – | –
2 | COc1cc(Nc2nc3n(n2)CCC[C@@H]3c2ccccc2Cl)ccc1-n1cnc(C)c1 [Compound 28, (8R)-8-(2-chlorophenyl)-5,6,7,8-tetrahydro-N-[3-methoxy-4-(4-methyl-1H-imidazol-1-yl)phenyl]-[1,2,4]triazolo[1,5-a]pyridin-2-amine] | 16 nM | 93% | 195 °C | 81% | 5130 nM | – | – | – | –
3 | COc1cc(Nc2nc3n(n2)CCC[C@H]3c2ccccc2Cl)ccc1-n1cnc(C)c1 [Compound 29, (8S)-8-(2-chlorophenyl)-5,6,7,8-tetrahydro-N-[3-methoxy-4-(4-methyl-1H-imidazol-1-yl)phenyl]-[1,2,4]triazolo[1,5-a]pyridin-2-amine] | 25 nM | 98% | 193.2 °C | 99% | > 10000 nM | – | – | – | –
4 | COc1cc(Nc2nc3n(n2)CCCC3c2ccccc2C(F)(F)F)ccc1-n1cnc(C)c1 (stereo not shown) [Compound 31, 5,6,7,8-tetrahydro-N-[3-methoxy-4-(4-methyl-1H-imidazol-1-yl)phenyl]-8-[2-(trifluoromethyl)phenyl]-[1,2,4]triazolo[1,5-a]pyridin-2-amine] | 13 nM | 96% | 187.9 °C | 83% | 5750 nM | – | – | – | –
5 | Cc1cc(-c2ccc(Nc3nc4n(n3)CCCC4c3ccccc3Cl)cc2)ccn1 (stereo not shown) [Compound 41, 8-(2-chlorophenyl)-5,6,7,8-tetrahydro-N-[4-(2-methyl-4-pyridinyl)phenyl]-[1,2,4]triazolo[1,5-a]pyridin-2-amine] | 28 nM | 102% | 227.2 °C | 54% | > 10000 nM | – | – | – | –
6 | COc1cc(Nc2nc3n(n2)CCCC3c2ccccc2Cl)ccc1-c1ccnc(C)c1 (stereo not shown) [Compound 78] | – | 103% | 169 °C | 46% | – | 32 nM | > 10000 nM | – | –
7 | Cc1cc(-c2ccc(Nc3nc4n(n3)CCCC4c3ccc(F)cc3F)cc2)ccn1 (stereo not shown) [Compound 81, 8-(2,4-difluorophenyl)-5,6,7,8-tetrahydro-N-[4-(2-methyl-4-pyridinyl)phenyl]-[1,2,4]triazolo[1,5-a]pyridin-2-amine] | 69 nM | 84% | 193.7 °C | 41% | > 10000 nM | – | – | – | –
8 | COc1cc(Nc2nc3n(n2)CCCC3c2ccc(F)cc2F)ccc1-c1ccnc(C)c1 (stereo not shown) [Compound 82, 8-(2,4-difluorophenyl)-5,6,7,8-tetrahydro-N-[3-methoxy-4-(2-methyl-4-pyridinyl)phenyl]-[1,2,4]triazolo[1,5-a]pyridin-2-amine] | 39 nM | 89% | 192.7 °C | 47% | > 10000 nM | – | – | – | –
9 | COc1cc(Nc2nc3n(n2)CCOC3c2ccccc2Cl)ccc1-c1ccnc(C)c1 (stereo not shown) [Compound 87, 8-(2-chlorophenyl)-5,6-dihydro-N-[3-methoxy-4-(2-methyl-4-pyridinyl)phenyl]-8H-[1,2,4]triazolo[5,1-c][1,4]oxazin-2-amine] | 35 nM | 89% | 181.3 °C | 48% | > 10000 nM | – | – | – | –
10 | Cc1cc(-c2ccc(Nc3nc4n(n3)CCCC4c3ccc(F)cc3C)cc2)ccn1 (stereo not shown) [Compound 90, 8-(4-fluoro-2-methylphenyl)-5,6,7,8-tetrahydro-N-[4-(2-methyl-4-pyridinyl)phenyl]-[1,2,4]triazolo[1,5-a]pyridin-2-amine] | 56 nM | 83% | 153.9 °C | 38% | > 10000 nM | – | – | – | –
11 | COc1cc(Nc2nc3n(n2)CCCC3c2ccc(F)cc2C)ccc1-c1ccnc(C)c1 (stereo not shown) [Compound 91, 8-(4-fluoro-2-methylphenyl)-5,6,7,8-tetrahydro-N-[3-methoxy-4-(2-methyl-4-pyridinyl)phenyl]-[1,2,4]triazolo[1,5-a]pyridin-2-amine] | 25 nM | 92% | 161.4 °C | 51% | 8510 nM | – | – | – | –
12 | COc1ccc(C2CCCn3nc(Nc4ccc(-c5ccnc(C)c5)cc4)nc32)cc1F.Cl.O (stereo not shown) [Compound 105, 8-(3-fluoro-4-methoxyphenyl)-5,6,7,8-tetrahydro-N-[4-(2-methyl-4-pyridinyl)phenyl]-[1,2,4]triazolo[1,5-a]pyridin-2-amine.1.6HCl.2.4H2O] | – | – | – | – | – | 56 nM | > 10000 nM | 99 % vs Ctrl | 51 % vs Ctrl
13 | COc1cc(F)cc(C2CCCn3nc(Nc4ccc(-c5ccnc(C)c5)cc4)nc32)c1 (stereo not shown) [Compound 185, 8-(3-fluoro-5-methoxyphenyl)-5,6,7,8-tetrahydro-N-[4-(2-methyl-4-pyridinyl)phenyl]-[1,2,4]triazolo[1,5-a]pyridin-2-amine] | 28 nM | 96% | 175.1 °C | 52% | > 10000 nM | – | – | – | –
